Measured values as given in ChEMBL document CHEMBL5120779, “Thiazolidinedione-Based Structure Modification of Celastrol Provides Thiazolidinedione-Conjugated Derivatives as Potent Agents against Non-Small-Cell Lung Cancer Cells through a Mitochondria-Mediated Apoptotic Pathway” (J Nat Prod, 2022).
pIC50: −log10 of the molar value.

Assays:
[1] = test system: A549; test: cells; conditions: Homo sapiens, A549, 96 h
Description: Cytotoxicity against human A549 cells assessed as inhibition of cell growth measured after 96 hrs by MTT assay

[2] = Selectivity index, ratio of IC50 for human MRC5 cells to IC50 for human A549 cells; format: toxicity; conditions: MRC5 cells and A549 cells, read-out: Ratio IC50
[3] = Cytotoxicity against human MRC5 cells assessed as inhibition of cell growth measured after 96 hrs by MTT assay; format: toxicity, cell-based
[4] = test system: A549; test: Potency index, ratio of celastrol IC50 to test compound IC50 for cytotoxicity against human A549 cells by MTT assay; format: functional
[5] = test system: A549; test: Cytotoxicity against human A549 cells assessed as inhibition of cell proliferation measured after 24 to 72 hrs by MTT assay; format: functional, cell-based; conditions: dose 0.125-2 µM, time 24-72 hrs, DDE = dose-dependent effect
[6] = test system: A549; test: Induction of apoptosis in human A549 cells assessed as necrotic cells at 0.5 uM incubated for 48 hrs by Annexin V-FITC/propidium iodide staining based flow cytometry (reference value: 3.36%); format: functional
[7] = test system: A549; test: Induction of apoptosis in human A549 cells assessed as viable cells at 0.5 uM incubated for 48 hrs by Annexin V-FITC/propidium iodide staining based flow cytometry (reference value: 95.7%); format: functional; conditions: read-out: Activity
[8] = test system: A549; test: Cytotoxicity against human A549 cells assessed as inhibition of cell proliferation at 0.125 to 2 uM by MTT assay; format: functional, cell-based; conditions: dose 0.125-2 µM, time 24-72 hrs, TDE = time-dependent effect
[9] = test system: A549; test: Induction of apoptosis in human A549 cells assessed as late apoptotic cells at 0.5 uM incubated for 48 hrs by Annexin V-FITC/propidium iodide staining based flow cytometry (reference value: 0.82%); format: functional
[10] = test system: A549; test: Induction of apoptosis in human A549 cells assessed as early apoptotic cells at 0.5 uM incubated for 48 hrs by Annexin V-FITC/propidium iodide staining based flow cytometry (reference value: 0.11%); format: functional

| SMILES | pIC50 [1] | selectivity ratio [2] | IC50 at 96 h [3] [nM] | further results |
| --- | --- | --- | --- | --- |
| CC1=C(O)C(=O)C=C2C1=CC=C1[C@@]2(C)CC[C@@]2(C)[C@@H]3C[C@](C)(C(=O)N4CCN(C(=O)CN5C(=O)S/C(=C\c6ccccc6)C5=O)CC4)CC[C@]3(C)CC[C@]12C | 6.40 | 6.28 | 2510 |  |
| CC1=C(O)C(=O)C=C2C1=CC=C1[C@@]2(C)CC[C@@]2(C)[C@@H]3C[C@](C)(C(=O)N4CCN(C(=O)CN5C(=O)S/C(=C\c6cccc(Br)c6)C5=O)CC4)CC[C@]3(C)CC[C@]12C | 5.97 | 3.79 | 4020 |  |
| CC1=C(O)C(=O)C=C2C1=CC=C1[C@@]2(C)CC[C@@]2(C)[C@@H]3C[C@](C)(C(=O)N4CCN(C(=O)CN5C(=O)S/C(=C\C(C)C)C5=O)CC4)CC[C@]3(C)CC[C@]12C | 7.05 | 32.6 | 2930 | Ratio IC50 [4]: 12.2 |
| CC1=C(O)C(=O)C=C2C1=CC=C1[C@@]2(C)CC[C@@]2(C)[C@@H]3C[C@](C)(C(=O)N4CCN(C(=O)CN5C(=O)S/C(=C\c6cccs6)C5=O)CC4)CC[C@]3(C)CC[C@]12C | 6.44 | 3.53 | 1270 |  |
| CC1=C(O)C(=O)C=C2C1=CC=C1[C@@]2(C)CC[C@@]2(C)[C@@H]3C[C@](C)(C(=O)N4CCN(C(=O)CN5C(=O)S/C(=C\C6CCCCC6)C5=O)CC4)CC[C@]3(C)CC[C@]12C | 6.26 | 6.56 | 3610 |  |
| CC1=C(O)C(=O)C=C2C1=CC=C1[C@@]2(C)CC[C@@]2(C)[C@@H]3C[C@](C)(C(=O)N4CCN(C(=O)CN5C(=O)S/C(=C\c6cccc(C)c6)C5=O)CC4)CC[C@]3(C)CC[C@]12C | 6.28 | 6.01 | 3190 |  |
| CC1=C(O)C(=O)C=C2C1=CC=C1[C@@]2(C)CC[C@@]2(C)[C@@H]3C[C@](C)(C(=O)N4CCN(C(=O)CN5C(=O)CSC5=O)CC4)CC[C@]3(C)CC[C@]12C | 5.81 | 3.68 | 5700 |  |
| CC1=C(O)C(=O)C=C2C1=CC=C1[C@@]2(C)CC[C@@]2(C)[C@@H]3C[C@](C)(C(=O)N4CCN(C(=O)CN5C(=O)S/C(=C\C6CCCC6)C5=O)CC4)CC[C@]3(C)CC[C@]12C | 6.77 | 18.9 | 3210 |  |
| CC1=C(O)C(=O)C=C2C1=CC=C1[C@@]2(C)CC[C@@]2(C)[C@@H]3C[C@](C)(C(=O)N4CCN(C(=O)CN5C(=O)S/C(=C\c6ccc(Br)cc6)C5=O)CC4)CC[C@]3(C)CC[C@]12C | 6.29 | 7.27 | 3710 |  |
| CCCC/C=C1\SC(=O)N(CC(=O)N2CCN(C(=O)[C@]3(C)CC[C@]4(C)CC[C@]5(C)C6=CC=C7C(=CC(=O)C(O)=C7C)[C@]6(C)CC[C@@]5(C)[C@@H]4C3)CC2)C1=O | 6.49 | 10.8 | 3440 |  |
| CC1=C(O)C(=O)C=C2C1=CC=C1[C@@]2(C)CC[C@@]2(C)[C@@H]3C[C@](C)(C(=O)N4CCN(C(=O)CN5C(=O)S/C(=C\c6ccco6)C5=O)CC4)CC[C@]3(C)CC[C@]12C | 6.77 | 6.18 | 1050 |  |
| CC1=C(O)C(=O)C=C2C1=CC=C1[C@@]2(C)CC[C@@]2(C)[C@@H]3C[C@](C)(C(=O)N4CCN(C(=O)CN5C(=O)S/C(=C\c6ccc(Cl)cc6)C5=O)CC4)CC[C@]3(C)CC[C@]12C | 6.38 | 7.33 | 3080 |  |
| COc1ccc(/C=C2\SC(=O)N(CC(=O)N3CCN(C(=O)[C@]4(C)CC[C@]5(C)CC[C@]6(C)C7=CC=C8C(=CC(=O)C(O)=C8C)[C@]7(C)CC[C@@]6(C)[C@@H]5C4)CC3)C2=O)cc1 | 6.49 | 6.38 | 2040 |  |
| CC1=C(O)C(=O)C=C2C1=CC=C1[C@@]2(C)CC[C@@]2(C)[C@@H]3C[C@](C)(C(=O)N4CCN(C(=O)CN5C(=O)S/C(=C\c6cccc(Cl)c6)C5=O)CC4)CC[C@]3(C)CC[C@]12C | 6.32 | 6.58 | 3160 |  |
| CC1=C(O)C(=O)C=C2C1=CC=C1[C@@]2(C)CC[C@@]2(C)[C@@H]3C[C@](C)(C(=O)N4CCN(C(=O)CN5C(=O)S/C(=C\c6cccc(F)c6)C5=O)CC4)CC[C@]3(C)CC[C@]12C | 6.40 | 7.95 | 3180 |  |
| CC1=C(O)C(=O)C=C2C1=CC=C1[C@@]2(C)CC[C@@]2(C)[C@@H]3C[C@](C)(C(=O)N4CCN(C(=O)CN5C(=O)S/C(=C\c6ccc7c(c6)OCO7)C5=O)CC4)CC[C@]3(C)CC[C@]12C | 6.46 | 9.43 | 4000 |  |
| COc1cccc(/C=C2\SC(=O)N(CC(=O)N3CCN(C(=O)[C@]4(C)CC[C@]5(C)CC[C@]6(C)C7=CC=C8C(=CC(=O)C(O)=C8C)[C@]7(C)CC[C@@]6(C)[C@@H]5C4)CC3)C2=O)c1 | 6.44 | 6.61 | 2380 |  |
| CC1=C(O)C(=O)C=C2C1=CC=C1[C@@]2(C)CC[C@@]2(C)[C@@H]3C[C@](C)(C(=O)N4CCN(C(=O)CN5C(=O)S/C(=C\c6ccc(C)cc6)C5=O)CC4)CC[C@]3(C)CC[C@]12C | 6.29 | 4.91 | 2500 |  |
| CC1=C(O)C(=O)C=C2C1=CC=C1[C@@]2(C)CC[C@@]2(C)[C@@H]3C[C@](C)(C(=O)O)CC[C@]3(C)CC[C@]12C [CELASTROL] | 5.96 | 4 | 4400 | Activity [5]: Dde; Activity [6]: 4.6%; viability at 0.5 µM [7]: 87.3%; Activity [8]: Tde; Activity [9]: 6.97%; Activity [10]: 1.12% |
| CC1=C(O)C(=O)C=C2C1=CC=C1[C@@]2(C)CC[C@@]2(C)[C@@H]3C[C@](C)(C(=O)N4CCN(C(=O)CN5C(=O)S/C(=C\c6ccc(F)cc6)C5=O)CC4)CC[C@]3(C)CC[C@]12C | 6.43 | 7.43 | 2750 |  |
| CC1=C(O)C(=O)C=C2C1=CC=C1[C@@]2(C)CC[C@@]2(C)[C@@H]3C[C@](C)(C(=O)N4CCN(C(=O)CN5C(=O)S/C(=C\c6ccc(N(C)C)cc6)C5=O)CC4)CC[C@]3(C)CC[C@]12C | 6.03 | 5.07 | 4770 |  |
